Experimental data reported in patent publication EP0103552B1, “Novel derivatives of guanine” (priority 1982, dated 1984).

Legend:
herpes simplex type 1 = test: plaque reduction assay, inhibition of virus multiplication in cell cultures; assay type: cell-based; details: herpes simplex type 1 plaque on Vero cell mono-layers
Method: The inhibition of herpesvirus by VIS 590 and VSA 687 has been measured as plaque reduction according to the following procedure. The plaque reduction assay for herpes simplex type 1 was performed on Vero (Green Monkey Kidney) cells as described by Ejercito et al., J. Gen. Virol. 2 (1968) 357. Monolayers on 5 cm petri dishes were used and after virus adsorption the compounds to be tested were added to-the medium.

Vero cells = test: cellular toxicity, reduction in cell growth; assay type: cell-based, Green Monkey; details: at 100 µM
Method: (§1) The method used has been described by Stenberg (Biochemical Pharmacology, Vol. 30 (1980), 1005-1008). […] However, at this concentration, herpes virus multiplication was inhibited to more than 90% (see Table 1). Table 2. Cellular toxicity of VIS 590 expressed as percent reduction in cell growth after 48 h of incubation.

[1] = cellular toxicity, reduction in cell growth; assay type: cell-based, Green Monkey; details: monkey, vero cells; Conc. 100 µM; after 48 h of incubation; read-out: Percent reduction in growth of Vero cells, determined as cell number
Method: as §1

SMILES: Nc1nc2c(ncn2CC(=O)CCO)c(=O)[nH]1 [VIS 590, 9-(2-oxo-4-hydroxybutyl)guanine]
- Inhibition % (herpes simplex type 1; Conc. 10 μ): 35%
- effect on cell growth (in words) (Vero cells): did not affect cell growth
- inhibition at 48 h, 100 µM [1]: 0%

SMILES: Nc1nc2c(ncn2CC(=O)C(O)CO)c(=O)[nH]1 (stereo not shown) [VSA 687, 9-(2-oxo-3,4-dihydroxybutyl)guanine]
- Inhibition % (herpes simplex type 1; Conc. 35 μ): >90%
